Test results: US8361964B2, “Growth hormone releasing factor (GRF) analogs and uses thereof” (Theratechnologies Inc., priority 2011, dated 2013)
Where a SMILES comes first, the peptide text is derived from it.

How the values were obtained:
human GRF receptor = biological target: T1, human GRF receptor (Homo sapiens, UniProt Q02643); assay: Alkaline phosphatase (AP) assay, GHRHr agonist activity; format: cell-based; conditions: BHK cells stably expressing human GRF receptor and alkaline phosphatase reporter gene; 24 hrs stimulation; read-out: EC50 (nM) as assessed by alkaline phosphatase (AP) induction
T1 construct: expressed in transfected cells; host or cells: baby hamster kidney (BHK) cells, stably transfected
T1 sequence (Q02643 23-423): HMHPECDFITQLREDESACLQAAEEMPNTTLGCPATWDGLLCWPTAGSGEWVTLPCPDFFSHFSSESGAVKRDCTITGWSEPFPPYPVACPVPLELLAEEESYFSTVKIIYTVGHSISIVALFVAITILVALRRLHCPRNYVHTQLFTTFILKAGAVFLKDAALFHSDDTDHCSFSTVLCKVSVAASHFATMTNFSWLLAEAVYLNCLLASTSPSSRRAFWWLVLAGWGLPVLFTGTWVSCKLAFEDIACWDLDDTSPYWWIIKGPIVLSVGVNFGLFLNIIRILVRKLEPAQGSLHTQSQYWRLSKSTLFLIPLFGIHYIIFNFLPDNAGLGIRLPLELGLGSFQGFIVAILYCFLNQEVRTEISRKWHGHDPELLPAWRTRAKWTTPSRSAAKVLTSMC
Protocol: The activity of representative GRF peptides was tested on baby hamster kidney (BHK) cells stably transfected to express the human GRF receptor and an alkaline phosphatase reporter gene. Cells were cultured 24 hours before stimulation, in 96-well plates, at a concentration of 0.5×10^5 cells/well. Before stimulation, cells were washed twice with DPBS and incubated 10-30 min in assay buffer (DMEM without phenol red supplemented with 20 mM HEPES and 1% heat inactivated fetal bovine serum (FBS). The dose response curve of the GRF peptides was done for 24 hrs with concentrations of peptides from 10^−5 M to 10^−11 M. Supernatant was collected and analysis of alkaline phosphatase levels was performed using the Alkaline Phosphatase detection kit from Applied Biosystems.
The in vitro activity of representative GRF analogs was tested on baby hamster kidney (BHK) cells expressing human GHRHr.

Growth Hormone secretion [1] = assay: Growth Hormone secretion in female rats after subcutaneous GRF analog; format: in vivo; conditions: female Sprague-Dawley rats; 10 μg/rat subcutaneous; plasma 0-60 minutes
Description: (§1) Sprague-Dawley rats (female, weighting from 250 to 300 g) were obtained from Charles River Inc. Animals were used according to a protocol of the Animal Care Committee along with the principles of the Guide for the Care and Use of Experimental Animals of the Canadian Council on Animal Care. The animals were maintained on standard laboratory chow under a 12:12 light:dark cycle. They were kept in groups of 4 rats per cage.
The animals were anesthetized with isoflurane 2.5%. A mid-section opening was made in the neck to expose the carotid artery. The carotid artery was canulated with polypropylene tubing (PE-50) to allow blood withdrawal. After surgical preparation, rats received a subcutaneous injection of GRF analog (10 μg/rat dissolved in 20 mM AcONa+5% mannitol at pH 5). For pharmacodynamics studies, blood samples (400 μL) were collected from 4 to 8 animals per group per time point. Blood samples (400 μl) were collected via the carotid catheter at 0, 10, 20, 30, 45 and 60 minutes after drug injection. Blood was placed into microtainer pre-treated with K3EDTA and immediately centrifuged at 13,000 RPM in a desktop centrifuge for 2 minutes. The plasma was collected and placed into a screw cap Eppendorf™ and quick frozen in liquid nitrogen. The samples were then kept at −80° C. until assayed. Determination of GH levels was performed as described below.
(§2) Rat and mouse plasma samples were vortexed carefully and centrifuged at 9,000 RPM for 2 min at 4° C. The dosage of GH levels was performed using the Rat/Mouse Growth Hormone ELISA kit from Millipore (Cat. # EZRMGH-45K). Sample supernatants were first diluted 20-fold with the GH ELISA assay buffer, and 10 μl of this dilution was added to the ELISA plate with 90 μl of GH EIA assay buffer. The remaining of the procedure was performed according to the manufacturer's instructions, and the data obtained were analyzed using GraphPad Prism™ software.
(§3) The GRF analogs described herein were tested for their ability to induce GH release in female mice and rats. […] The data are presented in Tables III (mice) and IV-V (rats).

Growth Hormone secretion [2] = assay: Growth Hormone secretion in female mice after subcutaneous GRF analog; format: in vivo; conditions: female CD-1 mice; 10 μg/mouse subcutaneous; plasma 10 minutes after injection
Description: as §1, with “CD-1 mice” for “Sprague-Dawley rats”, “20” for “250”, “25” for “300”, “mice” for “rats”
At the day of the experiment, mice received a subcutaneous injection of GRF analog (10 μg/mouse dissolved in 20 mM sodium acetate (AcONa)+5% mannitol at pH 5). 10 minutes after injection, the mice were anesthezied with isolufrane. Blood samples (500 μl) were obtained by intra-cardiac puncture. Blood was placed into microtainer pre-treated with K3EDTA and immediately centrifuged at 13,000 RPM in a desktop centrifuge for 2 minutes. The plasma was collected and placed into a screwcap Eppendorf™ tube and quick frozen in liquid nitrogen. The samples were then kept at −80° C. until assayed. Determination of GH levels was performed as described below.
as §2, §3

CC[C@H](C)[C@H](NC(=O)[C@H](C)NC(=O)[C@H](CC(=O)O)NC(=O)CNC(=O)[C@@H](N)Cc1ccc(O)cc1)C(=O)N[C@@H](Cc1ccccc1)C(=O)N[C@H](C(=O)N[C@@H](CC(=O)O)C(=O)N[C@@H](CO)C(=O)N[C@@H](Cc1ccc(O)cc1)C(=O)N[C@@H](CCCNC(=N)N)C(=O)N[C@@H](CCCCN)C(=O)N[C@H](C(=O)N[C@@H](CC(C)C)C(=O)N[C@@H](C)C(=O)N[C@@H](CCC(N)=O)C(=O)N[C@@H](CC(C)C)C(=O)N[C@@H](CCCCN)C(=O)N[C@@H](C)C(=O)N[C@@H](CCCNC(=N)N)C(=O)N[C@@H](CCC(N)=O)C(=O)N[C@@H](CC(=O)O)C(=O)N[C@H](C(=O)N[C@@H](CC(C)C)C(=O)N[C@@H](C)C(=O)N[C@@H](CCCNC(=N)N)C(=O)N[C@@H](C)C(=O)N[C@@H](C)C(=O)N[C@@H](CCCNC(=N)N)C(=O)N[C@@H](C)C(=O)N[C@@H](C)C(=O)N[C@@H](CCCNC(=N)N)C(=O)N[C@@H](CCO)C(N)=O)[C@@H](C)CC)C(C)C)[C@@H](C)O [SEQ ID NO: 36, YGDAIFTDSYRKVLAQLKARQDILARAARAAR-HoSer-NH2] (HELM PEPTIDE1{Y.G.D.A.I.F.T.D.S.Y.R.K.V.L.A.Q.L.K.A.R.Q.D.I.L.A.R.A.A.R.A.A.R.[O=C([C@H](CCO)N[*:1])[*:2]].[am]}$$$$V2.0)
EC50 (human GRF receptor): 0.2 nM | Mean AUC (GH Area Under the curve, GH concentration over time) (Growth Hormone secretion [1]): 6211 | Mean Cmax (ng/ml) of Growth Hormone secretion (Growth Hormone secretion [1]): 373.5 ng/mL

CC[C@H](C)[C@H](NC(=O)[C@H](C)NC(=O)[C@H](CC(=O)O)NC(=O)[C@@H](C)NC(=O)[C@@H](N)Cc1ccc(O)cc1)C(=O)N[C@@H](Cc1ccccc1)C(=O)N[C@H](C(=O)N[C@@H](CC(=O)O)C(=O)N[C@@H](CO)C(=O)N[C@@H](Cc1ccc(O)cc1)C(=O)N[C@@H](CCCNC(=N)N)C(=O)N[C@@H](CCCCN)C(=O)N[C@H](C(=O)N[C@@H](CC(C)C)C(=O)N[C@@H](C)C(=O)N[C@@H](CCC(N)=O)C(=O)N[C@@H](CC(C)C)C(=O)N[C@@H](CCCCN)C(=O)N[C@@H](C)C(=O)N[C@@H](CCCNC(=N)N)C(=O)N[C@@H](CCC(N)=O)C(=O)N[C@@H](CC(=O)O)C(=O)N[C@H](C(=O)N[C@@H](CC(C)C)C(=O)N[C@@H](C)C(=O)N[C@@H](CCCNC(=N)N)C(=O)N[C@@H](C)C(=O)N[C@@H](C)C(=O)N[C@@H](CCCNC(=N)N)C(=O)N[C@@H](C)C(=O)N[C@@H](C)C(=O)N[C@@H](CCCNC(=N)N)C(=O)N[C@@H](CCO)C(N)=O)[C@@H](C)CC)C(C)C)[C@@H](C)O [SEQ ID NO: 37, Y-a-DAIFTDSYRKVLAQLKARQDILARAARAAR-HoSer-NH2] (HELM PEPTIDE1{Y.[dA].D.A.I.F.T.D.S.Y.R.K.V.L.A.Q.L.K.A.R.Q.D.I.L.A.R.A.A.R.A.A.R.[O=C([C@H](CCO)N[*:1])[*:2]].[am]}$$$$V2.0)
EC50 (human GRF receptor): 0.2 nM | Mean AUC (GH Area Under the curve, GH concentration over time) (Growth Hormone secretion [1]): 14757 | Mean Cmax (ng/ml) of Growth Hormone secretion (Growth Hormone secretion [1]): 594.6 ng/mL

H-YSDAIFTDSYRKVLAQLKARQDILARAARAAR-NH2 [SEQ ID NO: 33, YSDAIFTDSYRKVLAQLKARQDILARAARAAR-NH2]
EC50 (human GRF receptor): 0.25 nM | Mean AUC (GH Area Under the curve, GH concentration over time) (Growth Hormone secretion [1]): 12467 | Mean Cmax (ng/ml) of Growth Hormone secretion (Growth Hormone secretion [1]): 499.0 ng/mL

CC/C=C/CC(=O)N[C@@H](Cc1ccc(O)cc1)C(=O)N[C@@H](C)C(=O)N[C@@H](CC(=O)O)C(=O)N[C@@H](C)C(=O)N[C@H](C(=O)N[C@@H](Cc1ccccc1)C(=O)N[C@H](C(=O)N[C@@H](CC(=O)O)C(=O)N[C@@H](CO)C(=O)N[C@@H](Cc1ccc(O)cc1)C(=O)N[C@@H](CCCNC(=N)N)C(=O)N[C@@H](CCCCN)C(=O)N[C@H](C(=O)N[C@@H](CC(C)C)C(=O)N[C@@H](C)C(=O)N[C@@H](CCC(N)=O)C(=O)N[C@@H](CC(C)C)C(=O)N[C@@H](CO)C(=O)N[C@@H](C)C(=O)N[C@@H](CCCNC(=N)N)C(=O)N[C@@H](CCC(N)=O)C(=O)N[C@@H](CC(=O)O)C(=O)N[C@H](C(=O)N[C@@H](CC(C)C)C(=O)N[C@@H](C)C(=O)N[C@@H](CCCNC(=N)N)C(N)=O)[C@@H](C)CC)C(C)C)[C@@H](C)O)[C@@H](C)CC [SEQ ID NO: 45, Trans-3-hexenoyl-YADAIFTDSYRKVLAQLSARQDILAR-NH2] (HELM PEPTIDE1{[CC/C=C/CC(=O)[*:2]].Y.A.D.A.I.F.T.D.S.Y.R.K.V.L.A.Q.L.S.A.R.Q.D.I.L.A.R.[am]}$$$$V2.0)
GH levels 10 min (Growth Hormone secretion [2]): 102.1 ng/mL | Mean AUC (GH Area Under the curve, GH concentration over time) (Growth Hormone secretion [1]): 1953 | Mean Cmax (ng/ml) of Growth Hormone secretion (Growth Hormone secretion [1]): 78.8 ng/mL

H-YGDAIFTDSYRKVLAQLKARQDILARAARAAR-NH2 [SEQ ID NO: 34, YGDAIFTDSYRKVLAQLKARQDILARAARAAR-NH2]
EC50 (human GRF receptor): 0.2 nM | Mean AUC (GH Area Under the curve, GH concentration over time) (Growth Hormone secretion [1]): 11046 | Mean Cmax (ng/ml) of Growth Hormone secretion (Growth Hormone secretion [1]): 539.7 ng/mL

CC/C=C/CC(=O)N[C@@H](Cc1ccc(O)cc1)C(=O)N[C@@H](C)C(=O)N[C@@H](CC(=O)O)C(=O)N[C@@H](C)C(=O)N[C@H](C(=O)N[C@@H](Cc1ccccc1)C(=O)N[C@H](C(=O)N[C@@H](CC(=O)O)C(=O)N[C@@H](CO)C(=O)N[C@@H](Cc1ccc(O)cc1)C(=O)N[C@@H](CCCNC(=N)N)C(=O)N[C@@H](CCCCN)C(=O)N[C@H](C(=O)N[C@@H](CC(C)C)C(=O)N[C@@H](C)C(=O)N[C@@H](CCC(N)=O)C(=O)N[C@@H](CC(C)C)C(=O)N[C@@H](CCCCN)C(=O)N[C@@H](C)C(=O)N[C@@H](CCCNC(=N)N)C(=O)N[C@@H](CCC(N)=O)C(=O)N[C@@H](CC(=O)O)C(=O)N[C@H](C(=O)N[C@@H](CC(C)C)C(=O)N[C@@H](C)C(=O)N[C@@H](CCCNC(=N)N)C(N)=O)[C@@H](C)CC)C(C)C)[C@@H](C)O)[C@@H](C)CC [SEQ ID NO: 20, Trans-3-hexenoyl-YADAIFTDSYRKVLAQLKARQDILAR-NH2] (HELM PEPTIDE1{[CC/C=C/CC(=O)[*:2]].Y.A.D.A.I.F.T.D.S.Y.R.K.V.L.A.Q.L.K.A.R.Q.D.I.L.A.R.[am]}$$$$V2.0)
GH levels 10 min (Growth Hormone secretion [2]): 307.7 ng/mL | Mean AUC (GH Area Under the curve, GH concentration over time) (Growth Hormone secretion [1]): 966 | Mean Cmax (ng/ml) of Growth Hormone secretion (Growth Hormone secretion [1]): 31.7 ng/mL
